We go through 18 compounds from patent publication US9409866B2, “Pyridine-2-amides useful as CB2 agonists” (Hoffmann-La Roche Inc., priority 2012, dated 2016).

One assay concerns the target human CB1 receptors (Homo sapiens (Human), UniProt P21554). As to the kind of experiment: functional cAMP assay, CHO cells expressing human CB1. Format: cell-based. The note with it: functional cAMP assay, CHO cells expressing human CB1. How it is done: (§1) CHO cells expressing human CB1 or CB2 receptors are seeded 17-24 hours prior to the experiment 50.000 cells per well in a black 96 well plate with flat clear bottom (Corning Costar #3904) in DMEM (Invitrogen No. 31331), 1×HT supplement, with 10% fetal calf serum and incubated at 5% CO2 and 37° C. in a humidified incubator. The growth medium was exchanged with Krebs Ringer Bicarbonate buffer with 1 mM IBMX and incubated at 30° C. for 30 min. Compounds were added to a final assay volume of 100 μl and incubated for 30 min at 30° C. Using the cAMP-Nano-TRF detection kit the assay (Roche Diagnostics) was stopped by the addition of 50 μl lysis reagent (Tris, NaCl, 1.5% Triton X100, 2.5% NP40, 10% NaN3) and 50 μl detection solutions (20 μM mAb Alexa700-cAMP 1:1, and 48 μM Ruthenium-2-AHA-cAMP) and shaken for 2 h at room temperature. The time-resolved energy transfer is measured by a TRF reader (Evotec Technologies GmbH), equipped with a ND:YAG laser as excitation source. The plate is measured twice with the excitation at 355 nm and at the emission with a delay of 100 ns and a gate of 100 ns, total exposure time 10 s at 730 (bandwidth 30 nm) or 645 nm (bandwidth 75 nm), respectively. The FRET signal is calculated as follows: FRET=T730-Alexa730-P(T645-B645) with P=Ru730-B730/Ru645-B645, where T730 is the test well measured at 730 nM, T645 is the test well measured at 645 nm, B730 and B645 are the buffer controls at 730 nm and 645 nm, respectively. cAMP content is determined from the function of a standard curve spanning from 10 μM to 0.13 nM cAMP.
(§2) EC50 values were determined using Activity Base analysis (ID Business Solution, Limited). The EC50 values for a wide range of cannabinoid agonists generated from this assay were in agreement with the values published in the scientific literature.

The target of a further assay is human CB2 receptors (Homo sapiens (Human), UniProt P34972). As to the kind of experiment: functional cAMP assay, CHO cells expressing human CB2. The note with it: Human CB2 EC50 (uM). The format is cell-based. On the procedure: as §1, §2

Like-named read-outs stand apart in the source and are kept apart here.

human CB1 receptors, sequence (P21554 whole entry): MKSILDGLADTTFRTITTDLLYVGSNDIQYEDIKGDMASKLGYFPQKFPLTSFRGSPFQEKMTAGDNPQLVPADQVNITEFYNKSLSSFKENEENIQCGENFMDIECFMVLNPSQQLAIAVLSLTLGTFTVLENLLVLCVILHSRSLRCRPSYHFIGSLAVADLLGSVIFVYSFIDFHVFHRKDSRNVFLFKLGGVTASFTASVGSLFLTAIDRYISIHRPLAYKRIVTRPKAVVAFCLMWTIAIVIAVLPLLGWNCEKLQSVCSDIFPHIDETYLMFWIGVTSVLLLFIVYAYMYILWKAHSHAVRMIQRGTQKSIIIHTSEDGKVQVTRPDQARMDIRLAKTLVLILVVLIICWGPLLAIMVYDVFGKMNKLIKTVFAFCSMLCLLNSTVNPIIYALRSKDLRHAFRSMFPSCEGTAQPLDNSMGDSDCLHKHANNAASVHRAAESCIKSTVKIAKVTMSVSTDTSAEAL
human CB2 receptors, sequence (P34972 whole entry): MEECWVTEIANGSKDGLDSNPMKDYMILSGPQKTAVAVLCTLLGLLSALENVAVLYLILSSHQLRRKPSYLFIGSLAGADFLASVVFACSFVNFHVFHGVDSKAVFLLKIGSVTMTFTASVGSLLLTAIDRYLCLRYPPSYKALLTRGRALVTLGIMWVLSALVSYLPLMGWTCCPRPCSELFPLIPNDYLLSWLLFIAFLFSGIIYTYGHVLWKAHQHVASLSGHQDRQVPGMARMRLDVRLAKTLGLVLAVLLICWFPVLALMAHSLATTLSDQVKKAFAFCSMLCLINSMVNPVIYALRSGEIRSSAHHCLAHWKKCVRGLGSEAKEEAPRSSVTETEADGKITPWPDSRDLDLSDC

For the compound `Cc1nc(C(C)(CC2CC2)NC(=O)c2cc(OCC(F)F)c(C3CC3)cn2)no1` (single isomer, unassigned) [Example 154, 5-cyclopropyl-N-[1-cyclopropyl-2-(5-methyl-1,2,4-oxadiazol-3-yl)propan-2-yl]-4-(2,2-difluoroethoxy)pyridine-2-carboxamide], the EC50 on human CB1 receptors (Human CB1 EC50 (uM)) was more than 10 µM; at human CB2 receptors, 0.0037 µM.

Take `Cc1nc(C(C)(CC2CC2)NC(=O)c2cc(OCC(F)F)c(C3CC3)cn2)no1` (single isomer, unassigned) [Example 155, 5-cyclopropyl-N-[1-cyclopropyl-2-(5-methyl-1,2,4-oxadiazol-3-yl)propan-2-yl]-4-(2,2-difluoroethoxy)pyridine-2-carboxamide]: the EC50 at human CB1 receptors (read-out: Human CB1 EC50) is more than 10 µM; on human CB2 receptors, 0.0058 µM.

Take `Cc1nc(C(C)(CC2CC2)NC(=O)c2cc(OCCF)c(C3CC3)cn2)no1` (single isomer, unassigned) [Example 156, 5-cyclopropyl-N-[1-cyclopropyl-2-(5-methyl-1,2,4-oxadiazol-3-yl)propan-2-yl]-4-(2-fluoroethoxy)pyridine-2-carboxamide]: the EC50 on human CB1 receptors (Human CB1 EC50 (uM)) is more than 10 µM; at human CB2 receptors, 0.0047 µM.

For `Cc1nc(C(C)(CC2CC2)NC(=O)c2cc(OCCF)c(C3CC3)cn2)no1` (single isomer, unassigned) [Example 157, 5-cyclopropyl-N-[1-cyclopropyl-2-(5-methyl-1,2,4-oxadiazol-3-yl)propan-2-yl]-4-(2-fluoroethoxy)pyridine-2-carboxamide], the figures for the concentration giving a half-maximal response (EC50) at human CB1 receptors (read-out: Human CB1 EC50) and on human CB2 receptors were more than 10 µM and 0.0036 µM, respectively.

`Cc1nc(C(C)(NC(=O)c2cc(OCC(F)(F)F)c(C3(F)COC3)cn2)C2CC2)no1` (single isomer, unassigned) [Example 166, N-[1-cyclopropyl-1-(5-methyl-1,2,4-oxadiazol-3-yl)ethyl]-5-(3-fluorooxetan-3-yl)-4-(2,2,2-trifluoroethoxy)pyridine-2-carboxamide]: the EC50 on human CB1 receptors (Human CB1 EC50 (uM)) is more than 10 µM; at human CB2 receptors it was 0.31 µM.

With `Cc1nc(C(C)(NC(=O)c2cc(OCC(F)(F)F)c(C3(F)COC3)cn2)C2CC2)no1` (single isomer, unassigned) [Example 167, N-[1-cyclopropyl-1-(5-methyl-1,2,4-oxadiazol-3-yl)ethyl]-5-(3-fluorooxetan-3-yl)-4-(2,2,2-trifluoroethoxy)pyridine-2-carboxamide], the EC50 is more than 10 µM at human CB1 receptors (read-out: Human CB1 EC50) and 0.0281 µM on human CB2 receptors.

Take `Cc1nnc(C(NC(=O)c2cc(OCC(F)(F)F)c(C3CC3)cn2)C(C)(C)C)o1` (single isomer, unassigned) [Example 178, 5-cyclopropyl-N-[2,2-dimethyl-1-(5-methyl-1,3,4-oxadiazol-2-yl)propyl]-4-(2,2,2-trifluoroethoxy)pyridine-2-carboxamide]: the EC50 on human CB1 receptors (Human CB1 EC50 (uM)) is more than 10 µM; at human CB2 receptors it was 0.0105 µM.

For the compound `Cc1nnc(C(NC(=O)c2cc(OCC(F)(F)F)c(C3CC3)cn2)C(C)(C)C)o1` (single isomer, unassigned) [Example 179, 5-cyclopropyl-N-[2,2-dimethyl-1-(5-methyl-1,3,4-oxadiazol-2-yl)propyl]-4-(2,2,2-trifluoroethoxy)pyridine-2-carboxamide], the EC50 is more than 10 µM on human CB1 receptors (read-out: Human CB1 EC50) and 0.0351 µM on human CB2 receptors.

For `Cc1nnc(C(C)(CC2CC2)NC(=O)c2cc(OCC(F)(F)F)c(C3CC3)cn2)o1` (single isomer, unassigned) [Example 184, 5-cyclopropyl-N-[1-cyclopropyl-2-(5-methyl-1,3,4-oxadiazol-2-yl)propan-2-yl]-4-(2,2,2-trifluoroethoxy)pyridine-2-carboxamide], the results for the EC50 at human CB1 receptors (Human CB1 EC50 (uM)) and at human CB2 receptors were more than 10 µM and 0.0856 µM, respectively.

Take `Cc1nnc(C(C)(CC2CC2)NC(=O)c2cc(OCC(F)(F)F)c(C3CC3)cn2)o1` (single isomer, unassigned) [Example 185, 5-cyclopropyl-N-[1-cyclopropyl-2-(5-methyl-1,3,4-oxadiazol-2-yl)propan-2-yl]-4-(2,2,2-trifluoroethoxy)pyridine-2-carboxamide]: the values for the 50% effective concentration (EC50) at human CB1 receptors (read-out: Human CB1 EC50) and on human CB2 receptors were more than 10 µM and 0.0302 µM, respectively.

As for `CNC(=O)C(C)(NC(=O)c1cc(OCC(F)(F)F)c(C2CC2)cn1)c1noc(C)n1` (single isomer, unassigned) [Example 187, 5-cyclopropyl-N-[1-(methylamino)-2-(5-methyl-1,2,4-oxadiazol-3-yl)-1-oxopropan-2-yl]-4-(2,2,2-trifluoroethoxy)pyridine-2-carboxamide], the EC50 on human CB1 receptors (Human CB1 EC50 (uM)) was more than 10 µM; at human CB2 receptors it was 0.416 µM.

As for `CNC(=O)C(C)(NC(=O)c1cc(OCC(F)(F)F)c(C2CC2)cn1)c1noc(C)n1` (single isomer, unassigned) [Example 188, 5-cyclopropyl-N-[1-(methylamino)-2-(5-methyl-1,2,4-oxadiazol-3-yl)-1-oxopropan-2-yl]-4-(2,2,2-trifluoroethoxy)pyridine-2-carboxamide], the EC50 is more than 10 µM at human CB1 receptors (read-out: Human CB1 EC50) and 0.0206 µM at human CB2 receptors.

As to `Cn1nnnc1C(NC(=O)c1cc(OCC(F)(F)F)c(C2CC2)cn1)C(C)(C)C` (single isomer, unassigned) [Example 205, 5-cyclopropyl-N-[2,2-dimethyl-1-(1-methyltetrazol-5-yl)propyl]-4-(2,2,2-trifluoroethoxy)pyridine-2-carboxamide], the EC50 is more than 10 µM at human CB1 receptors (Human CB1 EC50 (uM)) and 0.108 µM at human CB2 receptors.

For the compound `Cn1nnnc1C(NC(=O)c1cc(OCC(F)(F)F)c(C2CC2)cn1)C(C)(C)C` (single isomer, unassigned) [Example 206, 5-cyclopropyl-N-[2,2-dimethyl-1-(1-methyltetrazol-5-yl)propyl]-4-(2,2,2-trifluoroethoxy)pyridine-2-carboxamide], the EC50 at human CB1 receptors (read-out: Human CB1 EC50) is more than 10 µM; on human CB2 receptors, 0.0393 µM.

As for `CC(CC1CC1)(NC(=O)c1cc(OCC(F)(F)F)c(C2CC2)cn1)c1noc(N)n1` (single isomer, unassigned) [Example 207, N-[2-(5-amino-1,2,4-oxadiazol-3-yl)-1-cyclopropylpropan-2-yl]-5-cyclopropyl-4-(2,2,2-trifluoroethoxy)pyridine-2-carboxamide], the EC50 at human CB1 receptors (Human CB1 EC50 (uM)) is more than 10 µM; at human CB2 receptors, 0.0083 µM.

Regarding `CC(CC1CC1)(NC(=O)c1cc(OCC(F)(F)F)c(C2CC2)cn1)c1noc(N)n1` (single isomer, unassigned) [Example 208, N-[2-(5-amino-1,2,4-oxadiazol-3-yl)-1-cyclopropylpropan-2-yl]-5-cyclopropyl-4-(2,2,2-trifluoroethoxy)pyridine-2-carboxamide], the EC50 on human CB1 receptors (read-out: Human CB1 EC50) was more than 10 µM; at human CB2 receptors, 0.0092 µM.

Regarding `Cn1nnc(C(NC(=O)c2cc(OCC(F)(F)F)c(C3CC3)cn2)C(C)(C)C)n1` (single isomer, unassigned) [Example 209, 5-cyclopropyl-N-[2,2-dimethyl-1-(2-methyltetrazol-5-yl)propyl]-4-(2,2,2-trifluoroethoxy)pyridine-2-carboxamide], the values for the EC50 at human CB1 receptors (Human CB1 EC50 (uM)) and on human CB2 receptors were more than 10 µM and 0.0048 µM, respectively.

For `Cn1nnc(C(NC(=O)c2cc(OCC(F)(F)F)c(C3CC3)cn2)C(C)(C)C)n1` (single isomer, unassigned) [Example 210, 5-cyclopropyl-N-[2,2-dimethyl-1-(2-methyltetrazol-5-yl)propyl]-4-(2,2,2-trifluoroethoxy)pyridine-2-carboxamide], the EC50 is more than 10 µM at human CB1 receptors (read-out: Human CB1 EC50) and 0.0042 µM at human CB2 receptors.
